Test results reported in patent publication US11180462B2, “Microbiocidal oxadiazole derivatives” (SYNGENTA PARTICIPATIONS AG, priority 2015, dated 2021).

Experiments:
[1] = system: Puccinia recondita f. Sp. Tritici; assay: Fungicidal activity against Puccinia recondita f. sp. tritici / wheat / leaf disc preventative (brown rust); assay type: in vivo; conditions: foliar, 200 ppm in the applied formulation, wheat leaf segments, preventative, compared to untreated control leaf disks, read-out: disease control
In short: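 Percent disease control relative to untreated check segments is scored once disease develops, 7 to 9 days after application. Wheat cv. Kanzler segments receive compound spray (200 ppm in formulation) one day before spore inoculation, then sit at 19° C. and 75% rh under 12 h light/12 h dark.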

[2] = system: Puccinia recondita f. Sp. Tritici; assay: Fungicidal activity against Puccinia recondita f. sp. tritici / wheat / leaf disc curative (brown rust); assay type: in vivo; conditions: foliar, 24 h, 200 ppm in the applied formulation, wheat leaf segments, curative (applied 1 day after inoculation), compared to untreated control leaf disks, read-out: disease control
In short: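 Inoculate cv. Kanzler segments on agar; hold dark, 19° C, 75% RH. Spray diluted formulated compound at day 1. Incubate 12 h light/12 h dark, same temperature and humidity; score % control vs untreated 6–8 days later.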

[3] = system: Glomerella lagenarium (Colletotrichum lagenarium); assay: Fungicidal activity against Glomerella lagenarium (Colletotrichum lagenarium) liquid culture / cucumber / preventative (anthracnose); assay type: cell-based; conditions: Colletotrichum orbiculare; 20 ppm in the applied formulation; liquid culture (PDB), growth inhibition measured photometrically after 3 to 4 days; compared to untreated control; read-out: disease control
In short: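 Percent activity against the untreated check was derived from photometric growth measurements made 2 to 7 days after conidia in potato dextrose broth were combined with compound at 20 ppm. Cultures were kept dark at 24 °C and 96% humidity.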

Phakopsora Pachyrhizi = assay: Fungicidal activity against Phakopsora pachyrhizi / soybean / leaf disc preventative (Asian soybean rust); assay type: in vivo; conditions: foliar, 200 ppm in the applied formulation, soybean leaf disks, compared to untreated control leaf disks, read-out: disease control
In short: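 Scored 12 to 14 days post-application as percent control relative to untreated check discs, rust spores were sprayed under the disc one day after compound treatment. Incubation: 20°C, 75% rh, first 24–36 h in darkness, then 12 h daily light; discs kept on water agar.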

CON(Cc1ccc(-c2noc(C(F)(F)F)n2)cc1)C(=O)C1CCOC1 (stereo not drawn) [Compound 1.29, N-methoxy-N-[[4-[5-(trifluoromethyl)-1,2,4-oxadiazol-3-yl]phenyl]methyl]-tetrahydrofuran-3-carboxamide]
≥ 80%: pest or weed control at 200 ppm [1] | pest or weed control at 200 ppm [2] | inhibition of growth at 20 ppm [3] | pest or weed control at 200 ppm (Phakopsora Pachyrhizi)

O=C(C1CCCC1)N(Cc1ccc(-c2noc(C(F)(F)F)n2)cc1)C1CC1 [Compound 1.100, N-cyclopropyl-N-[[4-[5-(trifIuoromethyl)-1,2,4-oxadiazol-3-yl]phenyl]methyl]-cyclopentane-carboxamide]
≥ 80%: pest or weed control at 200 ppm [1] | pest or weed control at 200 ppm [2] | inhibition of growth at 20 ppm [3] | pest or weed control at 200 ppm (Phakopsora Pachyrhizi)

C=CCN(Cc1ccc(-c2noc(C(F)(F)F)n2)cc1)C(=O)C1CC1F (stereo not drawn) [Compound 1.491, N-allyl-2-fluoro-N-[[4-[5-(trifluoromethyl)-1,2,4-oxadiazol-3-yl]phenyl]methyl]-cyclopropane-carboxamide]
≥ 80%: pest or weed control at 200 ppm [1] | pest or weed control at 200 ppm [2] | inhibition of growth at 20 ppm [3] | pest or weed control at 200 ppm (Phakopsora Pachyrhizi)

CC(C)N(Cc1ccc(-c2noc(C(F)(F)F)n2)cc1)C(=O)C1CCOC1 (stereo not drawn) [Compound 1.673, N-isopropyl-N-[[4-[5-(trifluoromethyl)-1,2,4-oxadiazol-3-yl]phenyl]methyl]-tetrahydrofuran-3-carboxamide]
≥ 80%: pest or weed control at 200 ppm [1] | pest or weed control at 200 ppm [2] | inhibition of growth at 20 ppm [3] | pest or weed control at 200 ppm (Phakopsora Pachyrhizi)

C#CCN(Cc1ccc(-c2noc(C(F)(F)F)n2)cc1)C(=O)CC(C)C [Compound 1.175, 3-methyl-N-prop-2-ynyl-N-[[4-[5-(trifluoromethyl)-1,2,4-oxadiazol-3-yl]phenyl]methyl]-butanamide]
≥ 80%: pest or weed control at 200 ppm [1] | pest or weed control at 200 ppm [2] | inhibition of growth at 20 ppm [3] | pest or weed control at 200 ppm (Phakopsora Pachyrhizi)

COCCC(=O)N(Cc1ccc(-c2noc(C(F)(F)F)n2)cc1)C(C)C [Compound 1.674, N-isopropyl-3-methoxy-N-[[4-[5-(trifluoromethyl)-1,2,4-oxadiazol-3-yl]phenyl]methyl]-propanamide]
≥ 80%: pest or weed control at 200 ppm [1] | pest or weed control at 200 ppm [2] | inhibition of growth at 20 ppm [3] | pest or weed control at 200 ppm (Phakopsora Pachyrhizi)

CON(Cc1ccc(-c2noc(C(F)(F)F)n2)cc1)C(=O)C1CCCCC1 [Compound 1.16, N-methoxy-N-[[4-[5-(trifluoromethyl)-1,2,4-oxadiazol-3-yl]phenyl]methyl]-cyclohexane-carboxamide]
≥ 80%: pest or weed control at 200 ppm [1] | pest or weed control at 200 ppm [2] | inhibition of growth at 20 ppm [3] | pest or weed control at 200 ppm (Phakopsora Pachyrhizi)

CON(Cc1ccc(-c2noc(C(F)(F)F)n2)cc1)C(=O)c1ccccc1Cl [Compound 1.44, 2-chloro-N-methoxy-N-[[4-[5-(trifluoromethyl)-1,2,4-oxadiazol-3-yl]phenyl]methyl]-benzamide]
≥ 80%: pest or weed control at 200 ppm [1] | pest or weed control at 200 ppm [2] | inhibition of growth at 20 ppm [3] | pest or weed control at 200 ppm (Phakopsora Pachyrhizi)

CCCOC(=O)N(Cc1ccc(-c2noc(C(F)(F)F)n2)cc1)OC [Compound 2.4, propyl N-methoxy-N-[[4-[5-(trifluoromethyl)-1,2,4-oxadiazol-3-yl]phenyl]methyl]-carbamate]
≥ 80%: pest or weed control at 200 ppm [1] | pest or weed control at 200 ppm [2] | inhibition of growth at 20 ppm [3] | pest or weed control at 200 ppm (Phakopsora Pachyrhizi)

CON(Cc1ccc(-c2noc(C(F)(F)F)n2)cc1)C(=O)C1CC1(C)C (stereo not drawn) [Compound 1.47, N-methoxy-2,2-dimethyl-N-[[4-[5-(trifluoromethyl)-1,2,4-oxadiazol-3-yl]phenyl]methyl]-cyclopropane-carboxamide]
≥ 80%: pest or weed control at 200 ppm [1] | pest or weed control at 200 ppm [2] | inhibition of growth at 20 ppm [3] | pest or weed control at 200 ppm (Phakopsora Pachyrhizi)

O=C(C1CCSCC1)N(Cc1ccc(-c2noc(C(F)(F)F)n2)cc1)CC1CC1 [Compound 1.230, N-(cyclopropylmethyl)-N-[[4-[5-(trifluoromethyl)-1,2,4-oxadiazol-3-yl]phenyl]methyl]-tetrahydrothiopyran-4-carboxamide]
≥ 80%: pest or weed control at 200 ppm [1] | pest or weed control at 200 ppm [2] | inhibition of growth at 20 ppm [3] | pest or weed control at 200 ppm (Phakopsora Pachyrhizi)

N#CCC(=O)N(Cc1ccc(-c2noc(C(F)(F)F)n2)cc1)CC(F)(F)F [Compound 1.701, 2-cyano-N-(2,2,2-trifluoroethyl)-N-[[4-[5-(trifluoromethyl)-1,2,4-oxadiazol-3-yl]phenyl]methyl]-acetamide]
≥ 80%: pest or weed control at 200 ppm [1] | pest or weed control at 200 ppm [2] | inhibition of growth at 20 ppm [3] | pest or weed control at 200 ppm (Phakopsora Pachyrhizi)

CON(Cc1ccc(-c2noc(C(F)(F)F)n2)cc1)C(=O)N(C)CC#N [Compound 3.57, 1-(cyanomethyl)-3-methoxy-1-methyl-3-[[4-[5-(trifluoromethyl)-1,2,4-oxadiazol-3-yl]phenyl]methyl]urea]
≥ 80%: pest or weed control at 200 ppm [1] | pest or weed control at 200 ppm [2] | inhibition of growth at 20 ppm [3] | pest or weed control at 200 ppm (Phakopsora Pachyrhizi)

CCC(=O)N(C)Cc1ccc(-c2noc(C(F)(F)F)n2)cc1 [Compound 1.517, N-methyl-N-[[4-[5-(trifluoromethyl)-1,2,4-oxadiazol-3-yl]phenyl]methyl]-propanamide]
≥ 80%: pest or weed control at 200 ppm [1] | pest or weed control at 200 ppm [2] | inhibition of growth at 20 ppm [3] | pest or weed control at 200 ppm (Phakopsora Pachyrhizi)

CON(Cc1ccc(-c2noc(C(F)(F)F)n2)cc1)C(=O)C1CC1 [Compound 1.2, N-methoxy-N-[[4-[5-(trifluoromethyl)-1,2,4-oxadiazol-3-yl]phenyl]methyl]-cyclopropane-carboxamide]
≥ 80%: pest or weed control at 200 ppm [1] | pest or weed control at 200 ppm [2] | inhibition of growth at 20 ppm [3] | pest or weed control at 200 ppm (Phakopsora Pachyrhizi)

C#CCN(Cc1ccc(-c2noc(C(F)(F)F)n2)cc1)C(=O)C(C)CC(C)=O (stereo not drawn) [Compound 1.164, 2-methyl-4-oxo-N-prop-2-ynyl-N-[[4-[5-(trifluoromethyl)-1,2,4-oxadiazol-3-yl]phenyl]methyl]-pentanamide]
≥ 80%: pest or weed control at 200 ppm [1] | pest or weed control at 200 ppm [2] | inhibition of growth at 20 ppm [3] | pest or weed control at 200 ppm (Phakopsora Pachyrhizi)

CC(C)C(NC(=O)C1CC1)C(=O)N(Cc1ccc(-c2noc(C(F)(F)F)n2)cc1)C1CC1 (stereo not drawn) [Compound 1.132, N-[1-[cyclopropyl-[[4-[5-(trifluoromethyl)-1,2,4-oxadiazol-3-yl]phenyl]methyl]-carbamoyl]-2-methyl-propyl]-cyclopropane-carboxamide]
≥ 80%: pest or weed control at 200 ppm [1] | pest or weed control at 200 ppm [2] | inhibition of growth at 20 ppm [3] | pest or weed control at 200 ppm (Phakopsora Pachyrhizi)

N#CC1(C(=O)N(Cc2ccc(-c3noc(C(F)(F)F)n3)cc2)CC(F)(F)F)CC1 [Compound 1.702, 1-cyano-N-(2,2,2-trrfluoroethyl)-N-[[4-[5-(trifluoromethyl)-1,2,4-oxadiazol-3-yl]phenyl]methyl]-cyclopropane-carboxamide]
≥ 80%: pest or weed control at 200 ppm [1] | pest or weed control at 200 ppm [2] | inhibition of growth at 20 ppm [3] | pest or weed control at 200 ppm (Phakopsora Pachyrhizi)
